{
  "source": "patent US20240181068A1",
  "about": "“SELECTIVE NEUTRAL PH INHIBITOR OF CATHEPSIN B” (The Regents of the University of California, priority 2021, published 2024)",
  "assay_type_in_all_cases": "biochemical",
  "key": {"[1]": {"biological_target": "T1, cathepsin B in SHSY5Y human neuroblastoma cell homogenate (Homo sapiens, UniProt P07858)", "T1 construct": "endogenous in cells; host or cells: SH-SY5Y human neuroblastoma cells", "test": "Cathepsin B activity in neuroblastoma cell homogenates in presence of inhibitors", "details": "inhibitor 1 μM, Z-Arg-Arg-AMC substrate, pH 5.5", "experimental": "Cathepsin B in human neuroblastoma cells treated with inhibitors. Neuroblastoma cells (human SHSY5Y) were grown in media consisting of 50% MEMalpha, 50% F12-K, 10% heat-inactivated FBS at 37° C. in an atmosphere of 95% air and 5% CO2. Firstly, cell homogenates were prepared by collection of cells in 0.32 M sucrose and freeze-thawing. Secondly, cells were incubated with Z-Arg-Lys-AOMK or CA-074Me for 6 hours at 37° C., and washed 3 times in phosphate-buffered saline and homogenates were prepared in 0.32 M sucrose with freeze-thawing. CA-074Me is a methyl ester form of the active CA-074 selective inhibitor of cathepsin B (70); CA-074Me penetrates the cell and is converted by intracellular esterases to CA-074.\nCathepsin B activity in the homogenates were monitored with Z-Arg-Arg-AMC substrate (60 μM) with buffer conditions of 40 mM citrate-phosphate, pH 5.5, 5 mM DTT, 1 mM EDTA, 100 mM NaCl, and 1.2% DMSO, followed by incubation at 37° C. for 30 minutes and reading of AMC fluorescence. CA-074-senstive activity was monitored to indicate cathepsin B activity, since CA-074 is a selective inhibitor of this enzyme (70). Protein content was measured in homogenates with the DC protein assay kit. Cathepsin B specific activity was calculated as nmol AMC/μg/min, and reported as the mean±SD (with analyses for statistical significance, p<0.05 by student's t-test)."}, "cathepsin L": {"biological_target": "T2, cathepsin L (Homo sapiens, UniProt P07711)", "T2 construct": "purchased R&D Systems 952-CY-010", "T2 sequence (P07711 114-333)": "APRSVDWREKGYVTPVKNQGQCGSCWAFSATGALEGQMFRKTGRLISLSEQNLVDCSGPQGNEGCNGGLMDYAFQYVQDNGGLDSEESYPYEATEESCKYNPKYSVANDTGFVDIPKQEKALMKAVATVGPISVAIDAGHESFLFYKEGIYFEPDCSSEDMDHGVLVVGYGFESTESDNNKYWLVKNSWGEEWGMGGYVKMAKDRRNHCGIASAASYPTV", "test": "Specificity of inhibitors: cathepsin L (Z-Phe-Arg-AMC substrate)", "details": "cathepsin L", "experimental": "(§1) Specificity of inhibitors for other cysteine cathepsin proteases. The effects of Z-Arg-Lys-AOMK and Z-Glu-Lys-AOMK on cathepsin V, L, K, S, X, H and C activities were assessed. IC50 values were calculated at pH 4.6 and pH 7.2 conditions, consisting of 40 mM citrate phosphate, 1 mM EDTA, 100 mM NaCl, and 5 mM DTT. The inhibitor concentrations ranged from 16.38 μM to 256 nM with 2-fold serial dilutions. […] Cathepsin V (0.04 ng/μL), cathepsin L (0.03 ng/μL), cathepsin K (0.10 ng/μL), cathepsin S (0.20 ng/uL) were assayed with 40 μM Z-Phe-Arg-AMC. Cathepsin X (0.20 ng/uL), cathepsin C (0.51 ng/uL) and cathepsin H (0.1 ng/μL) were assayed with 40 μM of MCA-Arg-Pro-Pro-Gly-Phe-Ser-Ala-Phe-Lys(Dnp)OH (SEQ ID NO: 2), Gly-Arg-AMC, and Arg-AMC, respectively. Activation of pro-cathepsin H to cathepsin H was conducted by incubation of cathepsin H (4.4 ng/μL) with cathepsin L (1.1 ng/μL) at RT for 2 hrs in activation buffer (20 mM citrate phosphate pH 6.0, 100 mM NaCl, and 5 mM DTT). Cathepsin C (13.78 ng/μL) was activated by incubation with cathepsin L (3.4 ng/μL) at RT for one hr in activation buffer (20 mM citrate phosphate, pH 6.0, 100 mM NaCl, 5 mM DTT). […] For all assays containing peptide-AMC substrates the fluorescent microplate reader settings were the same as outlined above for cathepsin B. For the cathepsin X assay, the plate reader was set to excitation 320 nm, emission 400 nm, gain 105, top optics and read height 1 mm. To convert RFU/s to picomol/min, 10 μM to 0.005 μM (2-fold serial dilution) of MCA-Arg-Pro-Pro-Gly-Phe-Ser-Ala-Phe-Lys(Dnp)OH (SEQ ID NO: 2) was fully hydrolyzed with excess cathepsin X and a standard curve was generated using the total fluorescence values calculated at each concentration."}, "cathepsin K": {"biological_target": "T3, cathepsin K (Homo sapiens, UniProt P43235)", "T3 construct": "purchased Abcam ab157067", "T3 sequence (P43235 115-329)": "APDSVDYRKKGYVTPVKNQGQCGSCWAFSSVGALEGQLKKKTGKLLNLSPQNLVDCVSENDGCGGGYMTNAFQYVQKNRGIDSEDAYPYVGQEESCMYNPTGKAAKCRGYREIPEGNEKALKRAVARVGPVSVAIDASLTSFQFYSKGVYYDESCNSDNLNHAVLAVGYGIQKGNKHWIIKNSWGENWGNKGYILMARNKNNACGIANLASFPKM", "test": "Specificity of inhibitors: cathepsin K (Z-Phe-Arg-AMC substrate)", "details": "cathepsin K", "experimental": "as §1"}, "cathepsin H": {"biological_target": "T4, cathepsin H (Homo sapiens, UniProt P09668)", "T4 construct": "purchased R&D Systems 75116-CY-010", "T4 sequence (P09668 116-335 limits assumed, other chains not shown)": "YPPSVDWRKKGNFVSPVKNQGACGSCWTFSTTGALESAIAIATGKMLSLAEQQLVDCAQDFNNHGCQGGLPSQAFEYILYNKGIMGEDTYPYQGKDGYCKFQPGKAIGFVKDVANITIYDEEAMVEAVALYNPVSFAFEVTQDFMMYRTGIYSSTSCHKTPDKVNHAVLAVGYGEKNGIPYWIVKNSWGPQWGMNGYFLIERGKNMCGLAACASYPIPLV", "test": "Specificity of inhibitors: cathepsin H (Arg-AMC substrate)", "details": "cathepsin H", "experimental": "as §1"}, "cathepsin X": {"biological_target": "cathepsin X (Homo sapiens, UniProt Q9UBR2)", "sequence (Q9UBR2 62-303)": "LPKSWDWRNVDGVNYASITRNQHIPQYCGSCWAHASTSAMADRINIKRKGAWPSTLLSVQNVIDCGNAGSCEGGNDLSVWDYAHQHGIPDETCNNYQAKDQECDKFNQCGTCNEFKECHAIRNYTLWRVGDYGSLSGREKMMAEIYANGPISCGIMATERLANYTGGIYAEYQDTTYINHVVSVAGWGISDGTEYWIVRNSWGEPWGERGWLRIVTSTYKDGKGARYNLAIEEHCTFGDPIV", "test": "Specificity of inhibitors: cathepsin X (MCA peptide substrate)", "details": "cathepsin X, pH 4.6", "experimental": "as §1"}, "cathepsin S": {"biological_target": "T5, cathepsin S (Homo sapiens, UniProt P25774)", "T5 construct": "purchased R&D Systems 1183-CY-010", "T5 sequence (P25774 115-331)": "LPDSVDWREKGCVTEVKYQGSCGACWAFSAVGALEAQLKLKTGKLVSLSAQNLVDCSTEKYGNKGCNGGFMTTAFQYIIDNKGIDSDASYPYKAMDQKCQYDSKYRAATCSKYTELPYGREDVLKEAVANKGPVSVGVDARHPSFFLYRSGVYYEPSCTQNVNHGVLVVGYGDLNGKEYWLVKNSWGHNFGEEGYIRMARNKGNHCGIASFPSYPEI", "test": "Specificity of inhibitors: cathepsin S (Z-Phe-Arg-AMC substrate)", "details": "cathepsin S", "experimental": "as §1"}, "cathepsin V": {"biological_target": "T6, cathepsin V (Homo sapiens, UniProt O60911)", "T6 construct": "purchased R&D Systems 1080-CY-010", "T6 sequence (O60911 114-334)": "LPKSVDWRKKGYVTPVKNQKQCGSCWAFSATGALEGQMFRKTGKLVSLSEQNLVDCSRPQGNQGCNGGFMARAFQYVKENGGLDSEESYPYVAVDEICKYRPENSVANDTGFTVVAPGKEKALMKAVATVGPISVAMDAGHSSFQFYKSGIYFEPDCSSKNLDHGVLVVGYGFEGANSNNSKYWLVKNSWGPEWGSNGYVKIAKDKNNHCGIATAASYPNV", "test": "Specificity of inhibitors: cathepsin V (Z-Phe-Arg-AMC substrate)", "details": "cathepsin V", "experimental": "as §1"}, "cathepsin C": {"biological_target": "T7, cathepsin C (Homo sapiens, UniProt P53634)", "T7 construct": "purchased R&D Systems 1071-CY-010", "T7 sequence (P53634 25-134 limits assumed)": "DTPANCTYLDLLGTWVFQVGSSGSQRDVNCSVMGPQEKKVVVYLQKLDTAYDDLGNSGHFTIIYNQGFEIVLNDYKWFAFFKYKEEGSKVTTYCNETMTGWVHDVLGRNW", "T7 sequence (P53634 231-394 limits assumed)": "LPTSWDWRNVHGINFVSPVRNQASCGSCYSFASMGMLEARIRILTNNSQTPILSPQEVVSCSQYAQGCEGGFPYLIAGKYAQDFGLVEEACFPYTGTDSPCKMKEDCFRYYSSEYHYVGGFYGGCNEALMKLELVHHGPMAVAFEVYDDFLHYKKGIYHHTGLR", "T7 sequence (P53634 395-463 limits assumed)": "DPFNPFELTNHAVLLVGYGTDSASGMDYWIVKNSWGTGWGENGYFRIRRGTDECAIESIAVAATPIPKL", "test": "Specificity of inhibitors: cathepsin C (Gly-Arg-AMC substrate)", "details": "pH 7.2, from IC50", "experimental": "as §1"}, "cathepsin B [2]": {"biological_target": "T8, cathepsin B (Homo sapiens, UniProt P07858)", "T8 construct": "purchased R&D Systems 953-CY-010", "test": "Cathepsin B inhibitor kinetic characterization, fluorogenic assay with Z-Phe-Arg-AMC", "details": "cathepsin B", "experimental": "Inhibitor kinetic characterization using fluorogenic assays for cathepsin B activity. Kinetic analyses of IC50, K1, kobs, and kinact/K1 values for Z-Arg-Lys-AOMK and Z-Glu-Lys-AOMK inhibition of cathepsin B were conducted by fluorogenic proteolytic assays consisting of 40 μM Z-Phe-Arg-AMC, 40 mM citrate phosphate at pH 7.2 or pH 4.6, 1 mM EDTA, 100 mM NaCl, 5 mM DTT, and 0.01% Tween 20; assays were performed at room temperature (22-27° C.) in quadruplicate. Inhibitor and substrate were combined in the reaction well, and the assay was started upon addition of cathepsin B (0.04 ng/μL). The inhibitor concentration ranged from 5.5 μM to 1.1 nM (1.5-fold serial dilution). A vehicle control assay contained 2% DMSO instead of inhibitor. Enzyme velocity (RFU/sec) was measured during a […] incubation period as relative fluorescent units per sec (RFU/s), calculated using the highest slope recorded for 10 consecutive readings taken at 46 sec intervals (thus, activity is calculated over a total of 460 sec). Prism software was used to analyze enzyme activity data in kinetic studies. IC50 values were calculated (without preincubation of inhibitor and enzyme) as the concentration of inhibitor that reduced cathepsin B activity by 50%.\nFor determination of K1 and kinact/K1 kinetic inhibition constants, kobs constants were determined by plots of cathepsin B activity in time courses with different inhibitor concentrations by curve fitting slope data of RFU versus time into Y=Y0*e^(−kobs*^X), where Y0 is the activity for the control with no inhibitor condition, Y is the activity in the presence of inhibitor, X is time. K1 and kinact values were calculated from curve fitting the kobs values into the equation kobs=kinact*[I]/(K1+[I]), where [I] is inhibitor concentration, and K1 is the x-axis inhibitor concentration where y=kinact/2 and kinact is the maximum rate of inactivation at saturating inhibitor concentrations (93, 94). These kinetic analyses are for irreversible inhibitors, Z-Arg-Lys-AOMK and Z-Glu-Lys-AOMK of this study, that utilize Ki values, rather than Ki values used for reversible inhibitors (93)."}, "cathepsin B [3]": {"biological_target": "T8, cathepsin B", "test": "Irreversible mechanism of inhibitors (pre-incubation, dilution, activity)", "details": "pH 4.6", "experimental": "Irreversible mechanism of inhibitors. The irreversible or reversible mechanism of cathepsin B inhibition was assessed for Z-Arg-Lys-AOMK and Z-Glu-Lys-AOMK inhibitors. At pH 7.2, cathepsin B was incubated with 190 nM Z-Arg-Lys-AOMK and 4.99 μM Z-Glu-Lys-AOMK for 15 min in pH 7.2 assay buffer and the assay was performed as described above for pH 4.6. Proteolytic activity was monitored for 2 hr. At pH 4.6, cathepsin B (activated, 3.7 ng/μL) was incubated with 4.24 μM Z-Arg-Lys-AOMK and 3.48 μM Z-Glu-Lys-AOMK for 15 min in 40 mM citrate phosphate pH 4.6, 1 mM EDTA, 100 mM NaCl, and 5 mM DTT; a vehicle control contained 2.5% DMSO. Each reaction was then diluted 100-fold in assay buffer such that the final assay composition was 0.04 ng/μL cathepsin B, 40 μM Z-Phe-Arg-AMC, and an inhibitor concentration of 1/10th the IC50 value."}},
  "data": [
    {"smiles": "CCCNC(=O)[C@H]1O[C@@H]1C(=O)N[C@H](C(=O)N1CCC[C@H]1C(=O)O)[C@@H](C)CC", "note": "[CA-074, reference compound]", "values": [
      {"measurement": "inhibition of proteolytic (cathepsin B) activity in cell lysate", "setting": "[1]", "result": "completely inhibited"}
    ]},
    {"smiles": "Cc1cccc(C)c1C(=O)OCC(=O)C(CCCCN)NC(=O)C(CCC(=O)O)NC(=O)OCc1ccccc1", "note": "(stereo not drawn) [Z-Glu-Lys-AOMK]", "values": [
      {"measurement": "IC50", "setting": "cathepsin L; pH 4.6", "result": "> 16", "unit": "µM"},
      {"measurement": "inhibition at 16 µM", "setting": "cathepsin L; pH 4.6, 16,000 nM inhibitor", "result": 23, "unit": "%"},
      {"measurement": "IC50", "setting": "cathepsin K; pH 4.6", "result": "> 16", "unit": "µM"},
      {"measurement": "inhibition at 16 µM", "setting": "cathepsin K; pH 4.6, 16,000 nM inhibitor", "result": 10, "unit": "%"},
      {"measurement": "IC50", "setting": "cathepsin K; pH 7.2", "result": "> 16", "unit": "µM"},
      {"measurement": "IC50", "setting": "cathepsin H; pH 4.6", "result": "> 16", "unit": "µM"},
      {"measurement": "IC50", "setting": "cathepsin H; pH 7.2", "result": "> 16", "unit": "µM"},
      {"measurement": "IC50", "setting": "cathepsin X", "result": "> 16", "unit": "µM"},
      {"measurement": "IC50", "setting": "cathepsin S; pH 4.6", "result": "> 16", "unit": "µM"},
      {"measurement": "inhibition at 16 µM", "setting": "cathepsin S; pH 4.6, 16,000 nM inhibitor", "result": 26, "unit": "%"},
      {"measurement": "IC50", "setting": "cathepsin S; pH 7.2", "result": "> 16", "unit": "µM"},
      {"measurement": "inhibition at 16 µM", "setting": "cathepsin S; pH 7.2, 16,000 nM inhibitor", "result": 30, "unit": "%"},
      {"measurement": "IC50", "setting": "cathepsin V; pH 7.2", "result": "> 16", "unit": "µM"},
      {"measurement": "inhibition at 16 µM", "setting": "cathepsin V; pH 7.2, 16,000 nM inhibitor", "result": 10, "unit": "%"},
      {"measurement": "fold more potent for cathepsin B than cathepsin C", "setting": "cathepsin C", "result": 38, "unit": "fold"},
      {"measurement": "kinact/KI", "setting": "cathepsin B [2]; pH 4.6", "result": 2000, "unit": "M⁻¹ s⁻¹"},
      {"measurement": "Ki", "setting": "cathepsin B [2]; pH 4.6, irreversible inhibitor", "result": 7.9, "unit": "µM"},
      {"measurement": "IC50", "setting": "cathepsin B [2]; pH 4.6, without preincubation", "result": 1.1, "unit": "µM"},
      {"measurement": "kinact/KI", "setting": "cathepsin B [2]; pH 7.2", "result": 8200, "unit": "M⁻¹ s⁻¹"},
      {"measurement": "Ki", "setting": "cathepsin B [2]; pH 7.2, irreversible inhibitor", "result": 2.3, "unit": "µM"},
      {"measurement": "IC50", "setting": "cathepsin B [2]; pH 7.2, without preincubation", "result": 0.32, "unit": "µM"},
      {"measurement": "cathepsin B activity after pre-incubation and dilution of inhibitor", "setting": "cathepsin B [3]", "result": "no cathepsin B activity"}
    ]}
  ]
}
